What was measured:
Type in all cases: in vivo
Details in all cases: active ingredient amount 31 g/ha, 14th day after application
[1] = tested on: barnyardgrass (Echinochloa crus-qalli L.); assay: Test Example 1: foliar treatment, growth inhibition rate on 14th day
Outline: (§1)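 Using a small sprayer, formulated compound in water (0.1 vol % surfactant, 1,000 L/ha) was applied to seedlings grown from seed in upland soil. Fourteen days on, growth state was observed and expressed as percent inhibition from 0 to 100.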

corn (Zea mays L.) [2] = assay: as above
Outline: as §1

[3] = tested on: crabgrass (Digitaria sanquinalis L.); assay: as above
Outline: as §1

[4] = tested on: green foxtail (Setaria viridis L.); assay: as above
Outline: (§2)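 Visual 0–100% inhibition scoring (100 = complete kill) at 14 days after foliar treatment of soil-grown seedlings at species-specific leaf stages, with the compound sprayed as a wettable powder or emulsifiable concentrate dilution.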

[5] = tested on: italian ryegrass (Lolium multiflorum Lam.); assay: as above
Outline: as §1

[6] = tested on: redroot pigweed (Amaranthus retroflexus L.); assay: as above
Outline: as §1

rice (Oryza sativa L.) [7] = assay: as above
Outline: as §2

[8] = tested on: soybean (Glycine max Merr.); assay: as above
Outline: as §2

[9] = tested on: wheat (Triticum aestivum L.); assay: as above
Outline: as §1

[10] = tested on: wild oat (Avena fatua L.); assay: as above
Outline: as §2

[11] = tested on: barnyardgrass (Echinochloa crus-qalli L.); assay: Test Example 2: soil application on the day after sowing, growth inhibition rate on 14th day
Outline: (§3)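 Upland soil pots; sowing, then next-day soil spraying of compound formulations (1,000 L/ha water) at defined a.i. doses. Day-14 visual rating of inhibition on a 0–100 scale, where 100 means complete kill.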

corn (Zea mays L.) [12] = assay: as above
Outline: as §3

[13] = tested on: crabgrass (Digitaris sanquinalis L.); assay: as above
Outline: as §3

[14] = tested on: green foxtail (Setaria viridis L.); assay: as above
Outline: as §3

[15] = tested on: prickly sida (Sida spinosa L.); assay: as above
Outline: as §3

[16] = tested on: redroot pigweed (Amaranthus retroflexus L.); assay: as above
Outline: as §3

rice (Oryza sativa L.) [17] = assay: as above
Outline: as §3

[18] = tested on: soybean (Glycine max Merr.); assay: as above
Outline: as §3

[19] = tested on: velvetleaf (Abutilon theophrasti MEDIC.); assay: as above
Outline: as §3

[20] = tested on: wheat (Triticum aestivum L.); assay: as above
Outline: as §3

Structure (SMILES): CC(=O)Oc1c(C)nn(C)c(=O)c1-c1cc(Oc2ncc(C(F)(F)F)cc2Cl)ccc1C1CC1 [1-150]
- Growth inhibition rate (%) Barnyardgrass [1]: 100%
- Growth inhibition rate (%) Corn (corn (Zea mays L.) [2]): 95%
- Growth inhibition rate (%) Crabgrass [3]: 100%
- Growth inhibition rate (%) Green foxtail [4]: 100%
- Growth inhibition rate (%) Italian ryegrass [5]: 100%
- Growth inhibition rate (%) Redroot pigweed [6]: 0%
- Growth inhibition rate (%) Rice (rice (Oryza sativa L.) [7]): 88%
- Growth inhibition rate (%) Soybean [8]: 0%
- Growth inhibition rate (%) Wheat [9]: 99%
- Growth inhibition rate (%) Wild oat [10]: 100%
- Growth inhibition rate (%) Barnyardgrass [11]: 99%
- Growth inhibition rate (%) Corn (corn (Zea mays L.) [12]): 0%
- Growth inhibition rate (%) Crabgrass [13]: 98%
- Growth inhibition rate (%) Green foxtail [14]: 98%
- Growth inhibition rate (%) Prickly sida [15]: 0%
- Growth inhibition rate (%) Redroot pigweed [16]: 0%
- Growth inhibition rate (%) Rice (rice (Oryza sativa L.) [17]): 0%
- Growth inhibition rate (%) Soybean [18]: 0%
- Growth inhibition rate (%) Velvetleaf [19]: 0%
- Growth inhibition rate (%) Wheat [20]: 0%

Structure (SMILES): CC(=O)Oc1c(C)nn(C)c(=O)c1-c1cc(Oc2ncc(C(F)(F)F)cc2Cl)c(C)cc1C [1-152]
- Growth inhibition rate (%) Barnyardgrass [1]: 100%
- Growth inhibition rate (%) Corn (corn (Zea mays L.) [2]): 90%
- Growth inhibition rate (%) Crabgrass [3]: 99%
- Growth inhibition rate (%) Green foxtail [4]: 100%
- Growth inhibition rate (%) Italian ryegrass [5]: 99%
- Growth inhibition rate (%) Redroot pigweed [6]: 0%
- Growth inhibition rate (%) Rice (rice (Oryza sativa L.) [7]): 85%
- Growth inhibition rate (%) Soybean [8]: 30%
- Growth inhibition rate (%) Wheat [9]: 88%
- Growth inhibition rate (%) Wild oat [10]: 100%
- Growth inhibition rate (%) Barnyardgrass [11]: 80%
- Growth inhibition rate (%) Corn (corn (Zea mays L.) [12]): 10%
- Growth inhibition rate (%) Crabgrass [13]: 35%
- Growth inhibition rate (%) Green foxtail [14]: 85%
- Growth inhibition rate (%) Prickly sida [15]: 0%
- Growth inhibition rate (%) Redroot pigweed [16]: 0%
- Growth inhibition rate (%) Rice (rice (Oryza sativa L.) [17]): 0%
- Growth inhibition rate (%) Soybean [18]: 10%
- Growth inhibition rate (%) Velvetleaf [19]: 0%
- Growth inhibition rate (%) Wheat [20]: 0%

Structure (SMILES): CCn1ncc(O)c(-c2cc(Oc3ncc(C(F)(F)F)cc3Cl)ccc2C)c1=O [1-157]
- Growth inhibition rate (%) Barnyardgrass [1]: 100%
- Growth inhibition rate (%) Corn (corn (Zea mays L.) [2]): 100%
- Growth inhibition rate (%) Crabgrass [3]: 100%
- Growth inhibition rate (%) Green foxtail [4]: 100%
- Growth inhibition rate (%) Italian ryegrass [5]: 99%
- Growth inhibition rate (%) Redroot pigweed [6]: 0%
- Growth inhibition rate (%) Rice (rice (Oryza sativa L.) [7]): 80%
- Growth inhibition rate (%) Soybean [8]: 20%
- Growth inhibition rate (%) Wheat [9]: 93%
- Growth inhibition rate (%) Wild oat [10]: 100%
- Growth inhibition rate (%) Barnyardgrass [11]: 100%
- Growth inhibition rate (%) Corn (corn (Zea mays L.) [12]): 0%
- Growth inhibition rate (%) Crabgrass [13]: 99%
- Growth inhibition rate (%) Green foxtail [14]: 100%
- Growth inhibition rate (%) Prickly sida [15]: 0%
- Growth inhibition rate (%) Redroot pigweed [16]: 0%
- Growth inhibition rate (%) Rice (rice (Oryza sativa L.) [17]): 40%
- Growth inhibition rate (%) Soybean [18]: 30%
- Growth inhibition rate (%) Velvetleaf [19]: 0%
- Growth inhibition rate (%) Wheat [20]: 0%

Structure (SMILES): Cn1ncc(O)c(-c2cc(Oc3ncc(C(F)(F)F)cc3Cl)ccc2OC(F)(F)F)c1=O [1-162]
- Growth inhibition rate (%) Barnyardgrass [1]: 100%
- Growth inhibition rate (%) Corn (corn (Zea mays L.) [2]): 98%
- Growth inhibition rate (%) Crabgrass [3]: 100%
- Growth inhibition rate (%) Green foxtail [4]: 100%
- Growth inhibition rate (%) Italian ryegrass [5]: 99%
- Growth inhibition rate (%) Redroot pigweed [6]: 0%
- Growth inhibition rate (%) Rice (rice (Oryza sativa L.) [7]): 93%
- Growth inhibition rate (%) Soybean [8]: 0%
- Growth inhibition rate (%) Wheat [9]: 99%
- Growth inhibition rate (%) Wild oat [10]: 100%
- Growth inhibition rate (%) Barnyardgrass [11]: 100%
- Growth inhibition rate (%) Corn (corn (Zea mays L.) [12]): 40%
- Growth inhibition rate (%) Crabgrass [13]: 100%
- Growth inhibition rate (%) Green foxtail [14]: 100%
- Growth inhibition rate (%) Prickly sida [15]: 0%
- Growth inhibition rate (%) Redroot pigweed [16]: 0%
- Growth inhibition rate (%) Rice (rice (Oryza sativa L.) [17]): 95%
- Growth inhibition rate (%) Soybean [18]: 0%
- Growth inhibition rate (%) Velvetleaf [19]: 0%
- Growth inhibition rate (%) Wheat [20]: 0%

Structure (SMILES): Cc1nn(C)c(=O)c(-c2cc(Oc3ncc(C(F)(F)F)cc3Cl)ccc2OC(F)(F)F)c1O [1-163]
- Growth inhibition rate (%) Barnyardgrass [1]: 100%
- Growth inhibition rate (%) Corn (corn (Zea mays L.) [2]): 100%
- Growth inhibition rate (%) Crabgrass [3]: 100%
- Growth inhibition rate (%) Green foxtail [4]: 100%
- Growth inhibition rate (%) Italian ryegrass [5]: 99%
- Growth inhibition rate (%) Redroot pigweed [6]: 0%
- Growth inhibition rate (%) Rice (rice (Oryza sativa L.) [7]): 75%
- Growth inhibition rate (%) Soybean [8]: 0%
- Growth inhibition rate (%) Wheat [9]: 60%
- Growth inhibition rate (%) Wild oat [10]: 100%
- Growth inhibition rate (%) Barnyardgrass [11]: 100%
- Growth inhibition rate (%) Corn (corn (Zea mays L.) [12]): 80%
- Growth inhibition rate (%) Crabgrass [13]: 100%
- Growth inhibition rate (%) Green foxtail [14]: 100%
- Growth inhibition rate (%) Prickly sida [15]: 0%
- Growth inhibition rate (%) Redroot pigweed [16]: 0%
- Growth inhibition rate (%) Rice (rice (Oryza sativa L.) [17]): 40%
- Growth inhibition rate (%) Soybean [18]: 0%
- Growth inhibition rate (%) Velvetleaf [19]: 0%
- Growth inhibition rate (%) Wheat [20]: 0%

Structure (SMILES): CCn1nc(C)c(OC(C)=O)c(-c2cc(Oc3ncc(C(F)(F)F)cc3Cl)ccc2C)c1=O [1-165]
- Growth inhibition rate (%) Barnyardgrass [1]: 100%
- Growth inhibition rate (%) Corn (corn (Zea mays L.) [2]): 100%
- Growth inhibition rate (%) Crabgrass [3]: 100%
- Growth inhibition rate (%) Green foxtail [4]: 100%
- Growth inhibition rate (%) Italian ryegrass [5]: 100%
- Growth inhibition rate (%) Redroot pigweed [6]: 0%
- Growth inhibition rate (%) Rice (rice (Oryza sativa L.) [7]): 83%
- Growth inhibition rate (%) Soybean [8]: 0%
- Growth inhibition rate (%) Wheat [9]: 95%
- Growth inhibition rate (%) Wild oat [10]: 100%
- Growth inhibition rate (%) Barnyardgrass [11]: 99%
- Growth inhibition rate (%) Corn (corn (Zea mays L.) [12]): 0%
- Growth inhibition rate (%) Crabgrass [13]: 100%
- Growth inhibition rate (%) Green foxtail [14]: 95%
- Growth inhibition rate (%) Prickly sida [15]: 0%
- Growth inhibition rate (%) Redroot pigweed [16]: 0%
- Growth inhibition rate (%) Rice (rice (Oryza sativa L.) [17]): 0%
- Growth inhibition rate (%) Soybean [18]: 0%
- Growth inhibition rate (%) Velvetleaf [19]: 0%
- Growth inhibition rate (%) Wheat [20]: 0%

Structure (SMILES): Cc1c(Oc2ncc(C(F)(F)F)cc2Cl)cccc1-c1c(O)cnn(CC2CC2)c1=O [1-166]
- Growth inhibition rate (%) Barnyardgrass [1]: 95%
- Growth inhibition rate (%) Corn (corn (Zea mays L.) [2]): 98%
- Growth inhibition rate (%) Crabgrass [3]: 99%
- Growth inhibition rate (%) Green foxtail [4]: 100%
- Growth inhibition rate (%) Italian ryegrass [5]: 30%
- Growth inhibition rate (%) Redroot pigweed [6]: 0%
- Growth inhibition rate (%) Rice (rice (Oryza sativa L.) [7]): 10%
- Growth inhibition rate (%) Soybean [8]: 15%
- Growth inhibition rate (%) Wheat [9]: 10%
- Growth inhibition rate (%) Wild oat [10]: 93%
- Growth inhibition rate (%) Barnyardgrass [11]: 80%
- Growth inhibition rate (%) Corn (corn (Zea mays L.) [12]): 0%
- Growth inhibition rate (%) Crabgrass [13]: 95%
- Growth inhibition rate (%) Green foxtail [14]: 80%
- Growth inhibition rate (%) Prickly sida [15]: 0%
- Growth inhibition rate (%) Redroot pigweed [16]: 0%
- Growth inhibition rate (%) Rice (rice (Oryza sativa L.) [17]): 0%
- Growth inhibition rate (%) Soybean [18]: 0%
- Growth inhibition rate (%) Velvetleaf [19]: 0%
- Growth inhibition rate (%) Wheat [20]: 0%

Structure (SMILES): C=CCn1ncc(O)c(-c2cc(Oc3ncc(C(F)(F)F)cc3Cl)ccc2C)c1=O [1-167]
- Growth inhibition rate (%) Barnyardgrass [1]: 98%
- Growth inhibition rate (%) Corn (corn (Zea mays L.) [2]): 100%
- Growth inhibition rate (%) Crabgrass [3]: 99%
- Growth inhibition rate (%) Green foxtail [4]: 100%
- Growth inhibition rate (%) Italian ryegrass [5]: 93%
- Growth inhibition rate (%) Redroot pigweed [6]: 0%
- Growth inhibition rate (%) Rice (rice (Oryza sativa L.) [7]): 35%
- Growth inhibition rate (%) Soybean [8]: 10%
- Growth inhibition rate (%) Wheat [9]: 40%
- Growth inhibition rate (%) Wild oat [10]: 98%
- Growth inhibition rate (%) Barnyardgrass [11]: 85%
- Growth inhibition rate (%) Corn (corn (Zea mays L.) [12]): 0%
- Growth inhibition rate (%) Crabgrass [13]: 100%
- Growth inhibition rate (%) Green foxtail [14]: 95%
- Growth inhibition rate (%) Prickly sida [15]: 0%
- Growth inhibition rate (%) Redroot pigweed [16]: 0%
- Growth inhibition rate (%) Rice (rice (Oryza sativa L.) [17]): 0%
- Growth inhibition rate (%) Soybean [18]: 0%
- Growth inhibition rate (%) Velvetleaf [19]: 0%
- Growth inhibition rate (%) Wheat [20]: 0%

Structure (SMILES): CC(=O)Oc1cnn(CC2CC2)c(=O)c1-c1cccc(Oc2ncc(C(F)(F)F)cc2Cl)c1C [1-170]
- Growth inhibition rate (%) Barnyardgrass [1]: 95%
- Growth inhibition rate (%) Corn (corn (Zea mays L.) [2]): 99%
- Growth inhibition rate (%) Crabgrass [3]: 99%
- Growth inhibition rate (%) Green foxtail [4]: 98%
- Growth inhibition rate (%) Italian ryegrass [5]: 30%
- Growth inhibition rate (%) Redroot pigweed [6]: 10%
- Growth inhibition rate (%) Rice (rice (Oryza sativa L.) [7]): 40%
- Growth inhibition rate (%) Soybean [8]: 0%
- Growth inhibition rate (%) Wheat [9]: 0%
- Growth inhibition rate (%) Wild oat [10]: 40%
- Growth inhibition rate (%) Barnyardgrass [11]: 75%
- Growth inhibition rate (%) Corn (corn (Zea mays L.) [12]): 0%
- Growth inhibition rate (%) Crabgrass [13]: 93%
- Growth inhibition rate (%) Green foxtail [14]: 98%
- Growth inhibition rate (%) Prickly sida [15]: 0%
- Growth inhibition rate (%) Redroot pigweed [16]: 0%
- Growth inhibition rate (%) Rice (rice (Oryza sativa L.) [17]): 0%
- Growth inhibition rate (%) Soybean [18]: 0%
- Growth inhibition rate (%) Velvetleaf [19]: 0%
- Growth inhibition rate (%) Wheat [20]: 0%
